Values after ≈ are worked out from the molar mass of the structure shown. Positions of bridges follow the written chain, without caps; N, C: chain ends. Non-standard residues stand in square brackets, D forms with d. Residues, ends and D or L forms follow the SMILES beside them. *: point of attachment. Tetradecanoyl(3R-OH) = CCCCCCCCCCC[C@@H](O)CC(=O)*; Asp(3S-OH) = N[C@H](C(=O)O)[C@H](O)C(=O)O; Thr(4-Cl) = N[C@H](C(=O)O)[C@H](O)CCl; aThr = C[C@H](O)[C@H](N)C(=O)O; dDab = NCC[C@@H](N)C(=O)O; Dab = NCC[C@H](N)C(=O)O; Dhb = C/C=C(\N)C(=O)O
Columns and labels:
[1] = system: Mus musculus; experiment: The compound was tested for antifungal activity in tail vein irritation model 7 days after a dose of 20 mg/kg administered intravenously at 0,24,48,72 h; Positive; type: functional, organism-based; parameters: dose 20 mg/kg
[2] = system: Mus musculus; experiment: Effective dose against disseminated Candidiasis mouse model after intraperitoneal administration; Value ranges from 7.8-12.4; type: functional
[3] = system: Candida albicans; experiment: Minimum inhibitory concentration against Candida albicans.; type: functional
[4] = system: Cryptococcus neoformans; experiment: Minimum inhibitory concentration against Cryptococcus neoformans.
[5] = system: Aspergillus fumigatus; experiment: Minimum inhibitory concentration against Aspergillus fumigatus; type: functional
[6] = system: Mus musculus; experiment: Effective dose against disseminated Candidiasis mouse model after intraperitoneal administration; type: functional
[7] = system: Mus musculus; experiment: Effective dose against disseminated Candidiasis mouse model after intraperitoneal administration; Value represented as 6.4/14.1; type: functional
[8] = system: Mus musculus; experiment: The compound was tested for antifungal activity in tail vein irritation model 7 days after a dose of 20 mg/kg administered intravenously at 0,24,48,72 h; Negative; type: functional, organism-based; parameters: dose 20 mg/kg
[9] = system: Mus musculus; experiment: Effective dose against disseminated Candidiasis mouse model after intraperitoneal administration; Value ranges from 2.5-7.2; type: functional

Structure (SMILES) | Toxicity [1] | MIC [3] [µg/mL] | MIC [4] [µg/mL] | MIC [5] [µg/mL] | ED50 [6] [mg 4kg-1] | Toxicity [8] | other results
C/C=C1/NC(=O)[C@H]([C@H](C)O)NC(=O)[C@@H](CCN)NC(=O)[C@H](CCCCN)NC(=O)[C@H](CC(=O)O)NC(=O)[C@@H](CCN)NC(=O)[C@@H](NC(=O)C[C@H](O)CCCCCCCCCCCCC)COC(=O)[C@H]([C@H](O)CCl)NC(=O)[C@H]([C@H](O)C(=O)O)NC1=O | Positive | – | – | – | – | – | –
C/C=C1/NC(=O)[C@H]([C@H](C)O)NC(=O)[C@H](CCN)NC(=O)[C@H](CCCCN)NC(=O)[C@H](CC(=O)O)NC(=O)[C@@H](CCN)NC(=O)[C@@H](NC(=O)C[C@H](O)CCCCCCCCCCCCC)COC(=O)[C@H]([C@H](O)CCl)NC(=O)[C@H]([C@H](O)C(=O)O)NC1=O [PSEUDOMYCIN C] | – | 0.312 (≈ 0.252 µM) | < 0.02 | 10 (≈ 8.09 µM) | – | – | ED50 [2]: 7.8 mg 4kg-1
C/C=C1/NC(=O)[C@H]([C@H](C)O)NC(=O)[C@H](CCNC(=O)OCOC(=O)C(C)(C)C)NC(=O)[C@H](CCCCNC(=O)OCOC(=O)C(C)(C)C)NC(=O)[C@H](CC(=O)O)NC(=O)[C@@H](CCNC(=O)OCOC(=O)C(C)(C)C)NC(=O)[C@@H](NC(=O)C[C@H](O)CCCCCCCCCCCCC)COC(=O)[C@H]([C@H](O)CCl)NC(=O)[C@H]([C@H](O)C(=O)O)NC1=O | – | > 20 | > 20 | > 20 | 9 | – | –
C/C=C1/NC(=O)[C@H]([C@H](C)O)NC(=O)[C@H](CCNC(=O)OCOC(=O)C(C)(C)C)NC(=O)[C@H](CCCCNC(=O)OCOC(=O)C(C)(C)C)NC(=O)[C@H](CC(=O)O)NC(=O)[C@@H](CCNC(=O)OCOC(=O)C(C)(C)C)NC(=O)[C@@H](NC(=O)C[C@H](O)CCCCCCCCCCC)COC(=O)[C@H]([C@H](O)CCl)NC(=O)[C@H]([C@H](O)C(=O)O)NC1=O | – | > 20 | > 20 | > 20 | – | – | ED50 [7]: 6.4 mg 4kg-1
C/C=C1/NC(=O)[C@H]([C@H](C)O)NC(=O)[C@@H](CCNC(=O)OCOC(=O)C(C)(C)C)NC(=O)[C@H](CCCCNC(=O)OCOC(=O)C(C)(C)C)NC(=O)[C@H](CC(=O)O)NC(=O)[C@@H](CCNC(=O)OCOC(=O)C(C)(C)C)NC(=O)[C@@H](NC(=O)C[C@H](O)CCCCCCCCCCC)COC(=O)[C@H]([C@H](O)CCl)NC(=O)[C@H]([C@H](O)C(=O)O)NC1=O | – | – | – | – | – | Negative | –
C/C=C1/NC(=O)[C@H]([C@H](C)O)NC(=O)[C@@H](CCNC(=O)OCOC(C)=O)NC(=O)[C@H](CCCCNC(=O)OCOC(C)=O)NC(=O)[C@H](CC(=O)O)NC(=O)[C@@H](CCNC(=O)OCOC(C)=O)NC(=O)[C@@H](NC(=O)C[C@H](O)CCCCCCCCCCC)COC(=O)[C@H]([C@H](O)CCl)NC(=O)[C@H]([C@H](O)C(=O)O)NC1=O | Positive | – | – | – | – | – | –
C/C=C1/NC(=O)[C@H]([C@H](C)O)NC(=O)[C@@H](CCNC(=O)OC(C)OC(C)=O)NC(=O)[C@H](CCCCNC(=O)OC(C)OC(C)=O)NC(=O)[C@H](CC(=O)O)NC(=O)[C@@H](CCNC(=O)OC(C)OC(C)=O)NC(=O)[C@@H](NC(=O)C[C@H](O)CCCCCCCCCCC)COC(=O)[C@H]([C@H](O)CCl)NC(=O)[C@H]([C@H](O)C(=O)O)NC1=O (some centres undefined) | – | – | – | – | >20 | Negative | –
C/C=C1\NC(=O)[C@H]([C@H](C)O)NC(=O)[C@H](CCN)NC(=O)[C@H](CCCCN)NC(=O)[C@H](CC(=O)O)NC(=O)[C@@H](CCN)NC(=O)[C@@H](NC(=O)C[C@H](O)CCCCCCCCCCC)COC(=O)[C@H]([C@H](O)CCl)NC(=O)[C@H]([C@H](O)C(=O)O)NC1=O [PSEUDOMYCIN B] ({Tetradecanoyl(3R-OH)}-S[dDab]DK[Dab][aThr][Dhb][Asp(3S-OH)][Thr(4-Cl)]; ester 1-C) | Positive | 0.625 (≈ 0.517 µM) | 0.039 (≈ 0.0323 µM) | 20 (≈ 16.6 µM) | – | – | ED50 [9]: 2.5 mg 4kg-1
C/C=C1/NC(=O)[C@H]([C@H](C)O)NC(=O)[C@@H](CCNC(=O)OCOC(=O)C(C)(C)C)NC(=O)[C@H](CCCCNC(=O)OCOC(=O)C(C)(C)C)NC(=O)[C@H](CC(=O)O)NC(=O)[C@@H](CCNC(=O)OCOC(=O)C(C)(C)C)NC(=O)[C@@H](NC(=O)C[C@H](O)CCCCCCCCCCCCC)COC(=O)[C@H]([C@H](O)CCl)NC(=O)[C@H]([C@H](O)C(=O)O)NC1=O | – | – | – | – | – | Negative | –
C/C=C1/NC(=O)[C@H]([C@H](C)O)NC(=O)[C@H](CCNC(=O)OCOC(C)=O)NC(=O)[C@H](CCCCNC(=O)OCOC(C)=O)NC(=O)[C@H](CC(=O)O)NC(=O)[C@@H](CCNC(=O)OCOC(C)=O)NC(=O)[C@@H](NC(=O)C[C@H](O)CCCCCCCCCCC)COC(=O)[C@H]([C@H](O)CCl)NC(=O)[C@H]([C@H](O)C(=O)O)NC1=O | – | – | – | – | 13 | – | –

Source: ChEMBL document CHEMBL1134718, “N-acyloxymethyl carbamate linked prodrugs of pseudomycins are novel antifungal agents” (2001)
